From patent publication US12268674B2, “Mi-2β inhibitor as an immunotherapy agent” (BioVentures, LLC, priority 2021, dated 2025)

Experiments:
[1] = system: Mi-2β function (CXCL9, CXCL10, IRF1 expression) in A375 cells; assay: Cell-based assay of inhibitory activity on Mi-2β function, A375; conditions: summary of Table 3 (A375 and B16)
Method: The total RNA was extracted with QIAGEN RNeasy kit […] for cDNA synthesis with SuperScript II Reverse Transcriptase (Invitrogen). In total, 40 ng cDNA was used for quantitative real-time PCR amplification by TaqMan Gene Expression Master Mix (Thermo Fisher Scientific). The relative transcript levels were normalized with GAPDH expression. The data were calculated with the comparative CT method.

[2] = target: T1, recombinant purified human Mi-2β protein (Homo sapiens, UniProt Q14839); assay: FRET-based nucleosome repositioning assay (EpiDyne-FRET); format: biochemical; conditions: FRET-based nucleosome repositioning assay; read-out: IC50 against Mi-2β
T1 construct: made in house
Method: To screen small molecules that inhibit Mi-2β activity, Homology Modeling was carried out using Structure Prediction Wizard in Prime (49, 50). Mi-2β belongs to the CHD family of chromatin remodelers, which share highly conserved ATPase/helicase domains (51, 52). The Homology Model of Mi-2β was generated using the yeast CHD1 structure (PDB code: 3MWY) as template and the sequence was obtained from Uniprot (53), which clearly depicted the interaction of Mi-2β binding pocket and ATP (FIG. 10a). Virtual screening was done with the enzyme hinge region ligands database and nucleoside mimetic database from Enamine. All ligands of ˜23,010 compounds were docked to the ATP binding site using SP docking and post-processed with Prime MM-GBSA. Ligands with a methyldihydroimidazopyridinone structure were predicted to bind best to the ATP binding region of Mi-2β. To analyze biochemically the inhibitory activity of those inhibitors, a Fluorescence Resonance Energy Transfer (FRET)-based nucleosome repositioning assay (54, 55) was designed and modified using recombinant purified human Mi-2β protein to screen an in-house library of small molecular compounds with a methyldihydroimidazopyridinone structure (FIG. 10b). Briefly, the recombinant nucleosome substrates consist of a Cy5-labeled human histone octamer (H2A T120C-Cy5) wrapped with 5′ Cy3-labeled DNA, which contains a terminal nucleosome 601 positioning sequence. The 601 sequence provides the most thermodynamically preferred locations on DNA for histone octamer (56). FRET signaling was monitored by exciting the nucleosomes at the Cy3 absorption maximum and measuring Cy5 emissions and consequently the FRET signal is at a maximum at the assembled starting point. In the presence of ATP, Mi-2β induces the histone octamer to translocate along the DNA such that the Cy3-labeled DNA 5′ end is moved away from the Cy5-labeled octamer and consequently the FRET signal is decreased (FIG. 10b). The reaction conditions for nucleosome repositioning were modified through multiple rounds of optimization and validation (FIG. 10c-d). […]

melanoma = conditions: clinical data; cited from earlier work

T1 sequence (Q14839 whole entry): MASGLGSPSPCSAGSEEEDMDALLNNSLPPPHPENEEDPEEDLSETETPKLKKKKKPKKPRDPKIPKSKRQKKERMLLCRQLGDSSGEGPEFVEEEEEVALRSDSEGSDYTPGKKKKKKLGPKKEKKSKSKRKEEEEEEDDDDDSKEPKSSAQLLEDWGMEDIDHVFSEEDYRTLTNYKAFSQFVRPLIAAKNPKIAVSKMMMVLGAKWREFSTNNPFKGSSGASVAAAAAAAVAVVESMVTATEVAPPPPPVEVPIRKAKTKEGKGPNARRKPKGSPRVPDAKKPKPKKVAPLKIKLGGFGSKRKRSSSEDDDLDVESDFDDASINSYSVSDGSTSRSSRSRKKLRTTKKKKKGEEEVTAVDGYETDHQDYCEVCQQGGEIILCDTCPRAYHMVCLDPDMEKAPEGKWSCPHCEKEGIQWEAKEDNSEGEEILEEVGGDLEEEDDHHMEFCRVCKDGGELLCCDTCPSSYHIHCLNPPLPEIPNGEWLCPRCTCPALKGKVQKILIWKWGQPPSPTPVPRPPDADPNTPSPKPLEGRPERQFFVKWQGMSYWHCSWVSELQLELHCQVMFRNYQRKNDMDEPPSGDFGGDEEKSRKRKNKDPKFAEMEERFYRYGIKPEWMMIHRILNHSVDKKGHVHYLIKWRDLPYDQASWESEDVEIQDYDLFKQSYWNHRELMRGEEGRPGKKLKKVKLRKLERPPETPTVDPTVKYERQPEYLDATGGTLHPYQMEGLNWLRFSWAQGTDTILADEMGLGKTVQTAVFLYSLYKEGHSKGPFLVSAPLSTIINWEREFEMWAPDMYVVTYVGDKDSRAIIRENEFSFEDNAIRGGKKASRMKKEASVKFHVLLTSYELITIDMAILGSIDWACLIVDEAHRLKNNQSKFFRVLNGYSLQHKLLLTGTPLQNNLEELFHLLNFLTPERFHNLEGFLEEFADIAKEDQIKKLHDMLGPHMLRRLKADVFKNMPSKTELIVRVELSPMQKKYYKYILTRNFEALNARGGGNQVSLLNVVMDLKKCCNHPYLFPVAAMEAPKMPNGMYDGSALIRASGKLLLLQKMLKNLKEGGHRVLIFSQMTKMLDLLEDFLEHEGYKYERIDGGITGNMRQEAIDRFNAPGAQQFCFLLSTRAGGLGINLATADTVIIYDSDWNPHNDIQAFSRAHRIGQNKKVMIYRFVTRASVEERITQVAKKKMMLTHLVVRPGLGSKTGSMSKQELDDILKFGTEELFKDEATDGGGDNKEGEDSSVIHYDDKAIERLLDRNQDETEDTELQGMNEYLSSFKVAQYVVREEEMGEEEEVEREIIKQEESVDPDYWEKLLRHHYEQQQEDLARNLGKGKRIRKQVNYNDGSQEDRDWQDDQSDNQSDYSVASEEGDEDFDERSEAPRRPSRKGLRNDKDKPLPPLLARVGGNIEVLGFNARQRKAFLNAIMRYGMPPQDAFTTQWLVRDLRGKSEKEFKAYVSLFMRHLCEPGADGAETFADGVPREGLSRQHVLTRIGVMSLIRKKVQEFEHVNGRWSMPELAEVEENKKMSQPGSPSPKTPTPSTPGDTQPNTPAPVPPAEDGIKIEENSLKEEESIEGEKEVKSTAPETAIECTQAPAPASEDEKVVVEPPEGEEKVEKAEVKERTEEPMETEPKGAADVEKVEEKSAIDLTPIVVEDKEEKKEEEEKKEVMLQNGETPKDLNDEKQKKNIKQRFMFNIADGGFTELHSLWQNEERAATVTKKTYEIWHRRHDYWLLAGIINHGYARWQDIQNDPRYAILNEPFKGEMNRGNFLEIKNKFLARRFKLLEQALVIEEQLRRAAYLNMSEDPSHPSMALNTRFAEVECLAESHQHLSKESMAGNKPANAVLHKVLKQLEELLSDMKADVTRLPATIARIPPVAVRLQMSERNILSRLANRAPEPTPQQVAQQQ

IC50 [2] [µM] | Compound | inhibitory activity on Mi-2β function (enhanced expression of IFN-γ-responsive genes) [1] | melanoma patients that respond (melanoma) [%]
– | O=C(NC1CCn2ccnc2C1)c1cccc(-c2cnc3[nH]c(=O)n(Cc4cccc(C(F)(F)F)c4)c3c2)c1 (stereo not shown) [ZW-7-059] | high inhibitory activity | –
– | Cn1c(=O)n(C)c2ncc(-c3cccc(C(=O)NC4CCn5ccnc5C4)c3)cc21 (stereo not shown) [ZW-7-023] | high inhibitory activity | –
– | Cc1c(C(=O)NC2CCn3ccnc3C2)cccc1-c1cnc2[nH]c(=O)n(C)c2c1 (stereo not shown) [SJW-6-004] | high inhibitory activity | –
6.97 ± 2.07 | Cn1c(=O)[nH]c2ncc(-c3cccc(C(=O)NC4CCn5ccnc5C4)c3)cc21 (stereo not shown) [Z36] | high inhibitory activity | –
– | ipilimumab: anti-CTLA-4 antibody | – | 20
– | pembrolizumab: anti-PD-1 antibody | – | 33
